Laboratory results: ChEMBL document CHEMBL1201862, “PubChem BioAssay data set” (2004)
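Grown in 96-well plates, cells were treated for 48 hours with each compound at five concentrations. Insufficient inhibition: endpoint recorded as highest concentration tested. The concentration for 50% growth inhibition is given as GI50.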 The source made the active and inactive calls. Cut-off read from the data, not from the text of the source: active = GI50 up to about 1.1 µM and inactive = higher.

Columns and labels:
Assay in all cases: NCI-60 cell line screen, 48 h
[1] = system: MCF7
[2] = system: HOP-92
[3] = system: MDA-MB-231
[4] = system: A549
[5] = system: SK-MEL-2
[6] = system: K562
[7] = system: OVCAR-4
[8] = system: NCI-H226
[9] = system: MOLT-4
[10] = system: DU-145
[11] = system: 786-0
[12] = system: COLO 205
[13] = system: HOP-62
[14] = system: U-251
[15] = system: M14
[16] = system: RXF 393
[17] = system: EKVX
[18] = system: NCI-H522
[19] = system: SNB-19
[20] = system: SN12C

| Structure (SMILES) | GI50 [1] | GI50 [2] | GI50 [3] | GI50 [4] | GI50 [5] | GI50 [6] | GI50 [7] | GI50 [8] | GI50 [9] | GI50 [10] | GI50 [11] | GI50 [12] | GI50 [13] | GI50 [14] | GI50 [15] | GI50 [16] | GI50 [17] | GI50 [18] | GI50 [19] | GI50 [20] |
| --- | --- | --- | --- | --- | --- | --- | --- | --- | --- | --- | --- | --- | --- | --- | --- | --- | --- | --- | --- | --- |
| CC1(C)CC(=O)C2=C(C1)N(c1ccccc1)C1(O)C=CC(O)=C3C(=O)c4ccccc4C(=O)C321 (stereo not given) | 27.7 µM (inactive) | 24.1 µM (inactive) | 34.4 µM (inactive) | 67.5 µM (inactive) | 27 µM (inactive) | 14 µM (inactive) | 14.7 µM (inactive) | 18.7 µM (inactive) | 12.5 µM (inactive) | 74 µM (inactive) | 33.1 µM (inactive) | 33.6 µM (inactive) | 34.4 µM (inactive) | 32.9 µM (inactive) | 40.5 µM (inactive) | 19.8 µM (inactive) | 55.6 µM (inactive) | 20.3 µM (inactive) | 21.7 µM (inactive) | 28.7 µM (inactive) |
| Cc1sc(Nc2ccc(Nc3nc(-c4ccccc4)c(C)s3)cc2)nc1-c1ccccc1 | 21.8 µM (inactive) | > 100 µM (inactive) | 42 µM (inactive) | 30.1 µM (inactive) | 21.7 µM (inactive) | 18.6 µM (inactive) | > 100 µM (inactive) | 63.1 µM (inactive) | 17.1 µM (inactive) | 74 µM (inactive) | 21.2 µM (inactive) | 16.2 µM (inactive) | > 100 µM (inactive) | 13.7 µM (inactive) | 61.2 µM (inactive) | 8.67 µM (inactive) | > 100 µM (inactive) | 35.4 µM (inactive) | > 100 µM (inactive) | 31.3 µM (inactive) |
| CCO/C=N\C1=C(C#N)SC2=N/C(=C\c3ccco3)C(=O)N21 | > 100 µM (inactive) | > 100 µM (inactive) | > 100 µM (inactive) | > 100 µM (inactive) | > 100 µM (inactive) | > 100 µM (inactive) | > 100 µM (inactive) | > 100 µM (inactive) | > 100 µM (inactive) | > 100 µM (inactive) | > 100 µM (inactive) | > 100 µM (inactive) | > 100 µM (inactive) | > 100 µM (inactive) | > 100 µM (inactive) | > 100 µM (inactive) | > 100 µM (inactive) | > 100 µM (inactive) | > 100 µM (inactive) | > 100 µM (inactive) |
| COC(=O)[C@H]1CO[C@H]2C/C(C)=C/CC/C(C)=C/CC[C@@]3(C)O[C@@H]3C[C@H]21 | 16.9 µM (inactive) | 17.5 µM (inactive) | 10.8 µM (inactive) | 16.3 µM (inactive) | 18 µM (inactive) | 7.69 µM (inactive) | 9.48 µM (inactive) | 12 µM (inactive) | 10.4 µM (inactive) | 23.7 µM (inactive) | 16.3 µM (inactive) | 10.8 µM (inactive) | 15.8 µM (inactive) | 18.6 µM (inactive) | 16.3 µM (inactive) | 12.9 µM (inactive) | 19.5 µM (inactive) | 8.79 µM (inactive) | > 50 µM (inactive) | 10.8 µM (inactive) |
| CCNC(=O)OCC1C2=C(C(=O)C(C)=C(N)C2=O)N2CC3C(N3C)C12OC (stereo not given) | 4.95 µM (inactive) | > 75 µM (inactive) | > 100 µM (inactive) | 5.11 µM (inactive) | 30.3 µM (inactive) | 25.5 µM (inactive) | 26.6 µM (inactive) | > 87.7 µM (inactive) | 3.28 µM (inactive) | 4.1 µM (inactive) | 10.1 µM (inactive) | 27.6 µM (inactive) | 6.44 µM (inactive) | 23.8 µM (inactive) | 9.86 µM (inactive) | 32.5 µM (inactive) | > 94.2 µM (inactive) | 11.7 µM (inactive) | 24 µM (inactive) | 13.5 µM (inactive) |
| N=C(Cc1ccccc1)NCC(=O)O | > 100 µM (inactive) | > 100 µM (inactive) | > 100 µM (inactive) | > 100 µM (inactive) | > 100 µM (inactive) | > 100 µM (inactive) | > 100 µM (inactive) | > 100 µM (inactive) | > 100 µM (inactive) | > 100 µM (inactive) | > 100 µM (inactive) | > 100 µM (inactive) | > 100 µM (inactive) | > 100 µM (inactive) | > 100 µM (inactive) | > 100 µM (inactive) | > 100 µM (inactive) | > 100 µM (inactive) | > 100 µM (inactive) | > 100 µM (inactive) |
| COc1ccc(-c2[nH]c3c4c(nc5c(c24)C(=O)CC(C)(C)C5)CC(C)(C)C3)cc1 | 58.3 µM (inactive) | 39.6 µM (inactive) | 50.9 µM (inactive) | 62.4 µM (inactive) | 39.7 µM (inactive) | 28.4 µM (inactive) | 68.5 µM (inactive) | 68.7 µM (inactive) | 7.03 µM (inactive) | > 100 µM (inactive) | 32.2 µM (inactive) | 63.8 µM (inactive) | > 100 µM (inactive) | 48.9 µM (inactive) | > 100 µM (inactive) | 73.5 µM (inactive) | 47.3 µM (inactive) | 54.5 µM (inactive) | > 100 µM (inactive) | 38.9 µM (inactive) |
| Cc1sc2nc(N(C)C)oc(=O)c2c1C | > 100 µM (inactive) | > 100 µM (inactive) | > 100 µM (inactive) | 85.9 µM (inactive) | > 100 µM (inactive) | 63.4 µM (inactive) | > 100 µM (inactive) | > 100 µM (inactive) | 73.8 µM (inactive) | > 100 µM (inactive) | > 100 µM (inactive) | > 100 µM (inactive) | 51.5 µM (inactive) | > 100 µM (inactive) | > 100 µM (inactive) | 25 µM (inactive) | 59.6 µM (inactive) | 30.8 µM (inactive) | > 100 µM (inactive) | 86.1 µM (inactive) |
| CCCCN1C(=O)C[C@H]2[C@@H]3CCc4cc(OCCN5CCCC5)ccc4[C@H]3CC[C@]2(C)C1=O | 5.65 µM (inactive) | 6.08 µM (inactive) | 4.71 µM (inactive) | 7.8 µM (inactive) | 4.67 µM (inactive) | 1.74 µM (inactive) | 14.1 µM (inactive) | 6.53 µM (inactive) | 2.65 µM (inactive) | 13.9 µM (inactive) | 2.88 µM (inactive) | 1.92 µM (inactive) | 4.07 µM (inactive) | 5.51 µM (inactive) | 2.03 µM (inactive) | 1.89 µM (inactive) | 14.5 µM (inactive) | 8.41 µM (inactive) | 12.6 µM (inactive) | 14.2 µM (inactive) |
| CNC(=O)OCc1c2ccncc2c(C)c2c1[nH]c1ccccc12 | 0.0455 µM (active) | 0.695 µM (active) | 0.48 µM (active) | 0.251 µM (active) | 0.261 µM (active) | 0.275 µM (active) | 0.271 µM (active) | 0.258 µM (active) | 0.0659 µM (active) | 0.269 µM (active) | 0.262 µM (active) | 0.443 µM (active) | 0.494 µM (active) | 0.223 µM (active) | 1.18 µM (inactive) | < 0.0385 µM (active) | 0.372 µM (active) | 0.0646 µM (active) | 0.372 µM (active) | 0.275 µM (active) |
| c1cncc(CNc2ncn[nH]2)c1 | > 100 µM (inactive) | > 100 µM (inactive) | > 100 µM (inactive) | > 100 µM (inactive) | > 100 µM (inactive) | > 100 µM (inactive) | > 100 µM (inactive) | > 100 µM (inactive) | > 100 µM (inactive) | > 100 µM (inactive) | > 100 µM (inactive) | > 100 µM (inactive) | > 100 µM (inactive) | > 100 µM (inactive) | > 100 µM (inactive) | > 100 µM (inactive) | > 100 µM (inactive) | > 100 µM (inactive) | > 100 µM (inactive) | > 100 µM (inactive) |
| CCCOc1cc2c(cc1O)CC[C@@H]1[C@@H]2CC[C@]2(C)[C@@H](O)CC[C@@H]12 | 2.18 µM (inactive) | 10.3 µM (inactive) | 5.56 µM (inactive) | 2.99 µM (inactive) | 2.17 µM (inactive) | 0.209 µM (active) | 15.1 µM (inactive) | 5.97 µM (inactive) | 0.946 µM (active) | 3.27 µM (inactive) | 3.63 µM (inactive) | 12 µM (inactive) | 2.21 µM (inactive) | 1.87 µM (inactive) | 1.8 µM (inactive) | 2.25 µM (inactive) | 6.27 µM (inactive) | 0.383 µM (active) | 6.71 µM (inactive) | 4.97 µM (inactive) |
